Results: patent US11091484B2, “Tricyclic heterocycles as BET protein inhibitors” (Incyte Corporation, priority 2013, dated 2021)
Counter-ions that a name gives are not always drawn. Like-named read-outs stand apart in the source and are kept apart here.

What was measured:
[1] = molecular target: BRD4-BD1 (Homo sapiens (Human), UniProt O60885); test: BRD4 AlphaScreen assay (BRD4-BD1); format: binding; details: H4Ac4 peptide, 3.8 nM BRD4-BD1, read-out: BRD4 BD-1 enzyme IC50
Description: (§1) BRD4-BD1 and BRD4-BD2 assays were conducted in white 384-well polystyrene plate in a final volume of 20 μL for BD1 and 40 μL for BD2. Inhibitors were first serially diluted in DMSO and added to the plate wells before the addition of other reaction components. The final concentration of DMSO in the assay was 1.25% (BD1) and 0.83% (BD2). The assays were carried out at room temperature for 75 min. in the assay buffer (50 mM HEPES, pH 7.4, 100 mM NaCl, 0.05% CHAPS, 0.01% BSA), containing 50 nM Biotin-labeled tetra-acetylated histone H4 peptide (H4Ac4), 3.8 nM (BRD4-BD1, BPS Bioscience #31040) or 20 nM (BRD4-BD2, BPS Bioscience #31041). The reaction followed by the addition of 20 μL of assay buffer supplemented with Streptavidin donor beads (PerkinElmer 6760002) and GSH Acceptor beads (PerkinElmer-AL109C) at 4 μg/mL under reduced light. After plate sealing, the plate was incubated in the dark at room temperature for 75 min. before reading on a PHERAstar FS plate reader (BMG Labtech). IC50 determination was performed by fitting the curve of percent control activity versus the log of the inhibitor concentration using the GraphPad Prism 5.0 software.

[2] = molecular target: BRD4-BD2 (Homo sapiens (Human), UniProt O60885); test: BRD4 AlphaScreen assay (BRD4-BD2); format: binding; details: H4Ac4 peptide, 20 nM BRD4-BD2, read-out: BRD4 BD-2 enzyme IC50
Description: as §1

[3] = tested on: KMS.12.BM cell line (human myeloma); test: KMS.12.BM cell viability assay; format: cell-based; details: KMS.12.BM cells, 3 days, Cell Titer-GLO ATP quantitation, read-out: KMS cellular IC50
Description: KMS. 12.BM cell line (human myeloma) was purchased from JCRB (Osaka, Japan) and maintained in RPMI with 10% FBS culture medium. To measure the cytotoxic activity of the compounds through ATP quantitation, the KMS. 12.BM cells are plated in the RPMI culture medium at 5000 cells/well/per 100 μL into a 96-well polystyrene clear black tissue culture plate (Greiner-bio-one through VWR, NJ), in the presence or absence of a concentration range of test compounds. After 3 days, […] Cell Titer-GLO Luminescent (Promega, Madison, Wis.) cell culture agent is added to each well for 10 minutes at room temperature to stabilize the luminescent signal. This determines the number of viable cells in culture based on quantitation of the ATP present, which signals the presence of metabolically active cells. Luminescence is measured with the Top Count 384 (Packard Bioscience through Perkin Elmer, Boston, Mass.). […] IC50 data for the Examples is presented in Table 4 as determined by Assay B1.

Cc1cc2c(cc(N[C@H]3CCN(C)[C@@H](C)C3)c3nnc(C)n32)n1Cc1ccccc1 (racemic) [Example 224, 6-Benzyl-N-[(2S,4S)-1,2-dimethylpiperidin-4-yl]-1,7-dimethyl-6H-pyrrolo[2,3-e][1,2,4]triazolo[4,3-a]pyridin-4-amine and 6-Benzyl-N-[(2R,4R)-1,2-dimethylpiperidin-4-yl]-1,7-dimethyl-6H-pyrrolo[2,3-e][1,2,4]triazolo[4,3-a]pyridin-4-amine (Racemic Mixture Prepared)]
IC50 [1]: ≤ 100 nM
IC50 [2]: ≤ 100 nM
IC50 ([3]; Homo sapiens, 72 h): ≤ 1000 nM

Cc1nnc2ccc3c(cc(-c4ccn(CCC(=O)N(C)C)n4)n3Cc3cccc(Cl)c3)n12 [Example 103, 3-{3-[6-(3-chlorobenzyl)-1-methyl-6H-pyrrolo[2,3-e][1,2,4]triazolo[4,3-a]pyridin-7-yl]-1H-pyrazol-1-yl}-N,N-dimethylpropanamide]
IC50 ([3]; Homo sapiens, 72 h): ≤ 1000 nM

Cc1nnc2ccc3c(cc(-c4cc[nH]n4)n3Cc3cccc(CN4CCC4)c3)n12 [Example 182, 6-[3-(Azetidin-1-ylmethyl)benzyl]-1-methyl-7-(1H-pyrazol-3-yl)-6H-pyrrolo[2,3-e][1,2,4]triazolo[4,3-a]pyridine tris(trifluoroaceate) Salt]
IC50 [3]: ≤ 1000 nM
